Patent US6534520B2, “Antiviral compounds” (priority 1997, dated 2003)
Converted amounts (≈) assume the structure as drawn. Where two headings read alike, the source gives them in different places.

Legend:
HSV-1 = test: Antiviral activity against HSV-1 (CPE inhibition / neutral red); assay type: cell-based, herpes simplex virus type 1
[1] = system: Respiratory Syncitial Virus (RSV); test: Antiviral activity against RSV (CPE inhibition / neutral red); assay type: cell-based
Influenza A = test: microbe, parasite or virus in culture; assay type: cell-based; conditions: for IC50: Influenza A virus, read-out: INFLUENZA A IC50
[2] = Cytotoxicity run with the Influenza A test; assay type: cell-based
Method: (§1) Methods For Assay Of Cytotoxicity
(§2) In the CPE inhibition test, two wells of uninfected cells treated with each concentration of test Compound are run in parallel with the infected, treated wells. At the time CPE is determined microscopically, the toxicity control cells are also examined microscopically for any changes in cell appearance compared to normal control cells run in the same plate. These changes may be enlargement, granularity, cells with ragged edges, a filmy appearance, rounding, detachment from the surface of the well, or other changes. These changes are given a designation of T (100% toxic), PVH (partially toxic-very heavy-80%), PH (partially toxic-heavy-60%), P (partially toxic-40%), PS (partially toxic-slight-20%), or 0 (no toxicity-0%), conforming to the degree of cytotoxicity seen.
(§3) In the neutral red dye uptake phase of the antiviral test described above, the two toxicity control wells also receive neutral red and the degree of color intensity is determined spectrophotometrically. A neutral red CC50 (NRCC50) is subsequently determined.
(§4) C. ^3H Thymidine Uptake Assay
(§5) Flat bottom 96 well plates are plated with 5X10E3 Vero-34 cells/well and 1X10E4 Hs68 or Wi-38 cells/well respectively and incubated overnight at 37° C. and 5% CO2/air. After incubation, the supernatant medium is removed and replaced with test Compound dilutions in 2% DMEM (150 ul). The cells are then incubated 48 hours in a 5% CO2 incubator at 37° C.
(§6) 50 μl/well of 10 uCi/ml solution of [3H]-methyl thymidine (specific activity of approx. 2Ci/mmol) is added to the culture medium and incubated overnight (18 hours) in a 5% CO2 incubator at 37° C.
(§7) Cells are then collected onto a fiberglass filter (Printed Filtermat A 1450-421 Wallac) with a Tomtec cell harvester. Suspended cells are collected directly onto filter while for adherent cells, the medium is first removed, then the cells washed with PBS and trypsinized for 2-3 minutes (50 μl trypsin/well) before collecting.
(§8) Filters are dried for 1 hour at 37-40° C. and then placed into bags (1450-microbeta #1450-432 Wallac) with 4.5 ml of Betascint and counts obtained with Microbeta 1450 Wallac (protocol 1).
(§9) The percent of cell proliferation is determined by comparison to the control (no test Compound) and thereby establishing 50% inhibitory concentration is established.

Influenza B = test: microbe, parasite or virus in culture; assay type: cell-based; conditions: for IC50: Influenza B virus
[3] = Cytotoxicity run with the Influenza B test; assay type: cell-based
Method: as §1, §2, §3, §4, §5, §6, §7, §8, §9

Rhinovirus (RV) = test: Antiviral activity against Rhinovirus (CPE inhibition / neutral red); assay type: cell-based; conditions: for IC50: Enterovirus, read-out: RV IC50
Parainfluenza = test: Antiviral activity against Parainfluenza (CPE inhibition / neutral red); assay type: cell-based
Adenovirus = test: Antiviral activity against Adenovirus (CPE inhibition / neutral red); assay type: cell-based
HIVROJO = test: Anti-HIV activity against HIVROJO in PBMCs; assay type: cell-based; conditions: for IC50: Human immunodeficiency virus 1, PBMC, read-out: HIVROJO (PBMCs) IC50
[4] = Cytotoxicity in PBMCs (anti-HIV tests); assay type: cell-based; conditions: human; PBMCs, HIVROJO
[5] = Cytotoxicity run with the RSV test
[6] = Cytotoxicity run with the HSV-1 test
[7] = Cytotoxicity run with the Rhinovirus test
[8] = Cytotoxicity run with the Adenovirus test
HIVTEKI = test: Anti-HIV activity against HIVTEKI in PBMCs; conditions: Human immunodeficiency virus 1, PBMC, read-out: HIVTEKI (PBMCs) IC50
[9] = Cytotoxicity run with the Parainfluenza test
HSV-2 = test: Antiviral activity against HSV-2 (CPE inhibition / neutral red); assay type: cell-based, herpes simplex virus type 2
uninfected cells [10] = test: Cytotoxicity run with the Influenza A test; assay type: cell-based
Method: as §1, §2, §3, §4, §5, §6, §7, §8, §9

PBMCs = test: Cytotoxicity in PBMCs (anti-HIV tests); assay type: cell-based
uninfected cells [11] = system: uninfected cells
uninfected cells [12] = system: uninfected cells; remark: listed apart in the source
uninfected cells [13] = system: uninfected cells; remark: listed apart in the source
uninfected cells [14] = system: uninfected cells; remark: listed apart in the source
uninfected cells [15] = system: uninfected cells; remark: listed apart in the source
uninfected cells [16] = test: Cytotoxicity run with the Adenovirus test; conditions: cytotoxicity, Adenovirus test
[17] = Cytotoxicity run with the HSV-2 test
uninfected cells [18] = test: Cytotoxicity run with the Influenza B test; assay type: cell-based
Method: as §1, §2, §3, §4, §5, §6, §7, §8, §9

uninfected cells [19] = test: Cytotoxicity run with the Parainfluenza test; conditions: cytotoxicity, Parainfluenza test

Row | Compound | IC50 (Influenza A) | CC50 [2] | IC50 (Influenza B) | CC50 [3] | IC50 (Parainfluenza) | CC50 [4] | CC50 [5] | CC50 [6] | CC50 [7] | CC50 [8] | IC50 (HIVTEKI) | CC50 [9] | HSV-1 IC50 (HSV-1; HSV-1) | HSV-2 IC50 (HSV-2) | RSV IC50 ([1]; RSV) | INFLUENZA A IC50 (Influenza A) | INFLUENZA A CC50 (uninfected cells [10]) | INFLUENZA B IC50 (Influenza B) | RV IC50 (Rhinovirus (RV); Rhinovirus) | ADENOVIRUS IC50 (Adenovirus; Adenovirus) | further results
1 | C[C@@H](NC(=O)c1ccc2cncc(Br)c2n1)c1ccccc1 [#66, 8-Bromo-[1,6]naphthyridine-2-carboxylic acid (1-phenyl-ethyl)-amide] | 56 mg/L (≈ 157 µM) | 24 mg/L (≈ 67.4 µM) | 18 mg/L (≈ 50.5 µM) | 18 mg/L (≈ 50.5 µM) | 83 mg/L (≈ 233 µM) | 27.3 mg/L (≈ 76.6 µM) | 5 mg/L (≈ 14 µM) | 20 mg/L (≈ 56.1 µM) | 3 mg/L (≈ 8.42 µM) | 8 mg/L (≈ 22.5 µM) | 2.2 mg/L (≈ 6.18 µM) | 10 mg/L (≈ 28.1 µM) | – | – | – | – | – | – | – | – | IC50 (HSV-1; Human alphaherpesvirus 1, read-out: HSV-1 IC50): 1 mg/L (≈ 2.81 µM); IC50 ([1]; human respiratory syncytial virus, read-out: RSV IC50): 4 mg/L (≈ 11.2 µM); IC50 (Rhinovirus (RV)): 0.3 mg/L (≈ 0.842 µM); IC50 (Adenovirus; unidentified adenovirus, read-out: ADENOVIRUS IC50): 9 mg/L (≈ 25.3 µM); IC50 (HIVROJO): 1.4 mg/L (≈ 3.93 µM)
2 | COc1ccccc1CNC(=O)C1=Cc2ccncc2CC1 [#32, 7,8-dihydroisoquinolin-6-carboxylic acid 2′-methoxybenzylamide] | – | – | – | – | – | – | – | – | – | – | – | – | 5.5 mg/L | 15 mg/L | 50 mg/L | 60 mg/L | 67 mg/L | 56 mg/L | 10 mg/L | > 100 mg/L | HIVROJO (PBMCs) IC50 (HIVROJO; HIVROJO, PBMCs): 45 mg/L; HIVROJO (PBMCs) CC50 (PBMCs): >64 mg/L; HIVTEKI (PBMCs) CC50 (PBMCs; PBMCs, HIVTEKI columns): >64 mg/L; HSV-1 CC50 (uninfected cells [11]): 14 mg/L; HSV-2 CC50 (uninfected cells [12]): 29.0 mg/L; RSV CC50 (uninfected cells [13]): 30 mg/L; RV CC50 (uninfected cells [14]): 25 mg/L; PARAINFLUENZA CC50 (uninfected cells [15]): 20 mg/L; ADENOVIRUS CC50 (uninfected cells [16]): 80 mg/L
3 | O=C(NCCc1ccccc1)C1=Cc2ccncc2CC1 [#67, 7,8-Dihydro-isoquinoline-6-carboxylic acid phenethyl-amide] | > 100 mg/L | > 100 mg/L | > 100 mg/L | > 100 mg/L | 100 mg/L (≈ 359 µM) | 74.7 mg/L (≈ 268 µM) | 30 mg/L (≈ 108 µM) | > 100 mg/L | 40 mg/L (≈ 144 µM) | 30 mg/L (≈ 108 µM) | 41.2 mg/L (≈ 148 µM) | 30 mg/L (≈ 108 µM) | – | – | – | – | – | – | – | – | IC50 (HSV-1; Human alphaherpesvirus 1; read-out: HSV-1 IC50): 16 mg/L (≈ 57.5 µM); IC50 (HSV-2; Human alphaherpesvirus 2): 86 mg/L (≈ 309 µM); IC50 ([1]; human respiratory syncytial virus; read-out: RSV IC50): > 100 mg/L; IC50 (Rhinovirus (RV); Rhinovirus): > 20 mg/L; IC50 (Adenovirus; unidentified adenovirus; read-out: ADENOVIRUS IC50): > 100 mg/L; IC50 (HIVROJO; HIVROJO, PBMCs): 8.6 mg/L (≈ 30.9 µM); CC50 [17]: > 100 mg/L
4 | O=C(NCCc1c[nH]c2ccccc12)C1=Cc2ccncc2CC1 [#68] | – | – | – | – | – | – | – | – | – | – | – | – | 0.72 mg/L | 0.96 mg/L | 60 mg/L | 2.1 mg/L | 2.1 mg/L | 7.2 mg/L | 2 mg/L | 20 mg/L | INFLUENZA B CC50 (uninfected cells [18]): 11 mg/L; PARAINFLUENZA IC50 (Parainfluenza; Parainfluenza): 50 mg/L; HIVROJO (PBMCs) IC50 (HIVROJO; HIVROJO, PBMCs): 2.9 mg/L; HIVROJO (PBMCs) CC50 (PBMCs): 7.1 mg/L; HSV-1 CC50 (uninfected cells [11]): 12 mg/L; HSV-2 CC50 (uninfected cells [12]): 14 mg/L; RSV CC50 (uninfected cells [13]): 20 mg/L; RV CC50 (uninfected cells [14]): 10 mg/L; ADENOVIRUS CC50 (uninfected cells [16]): 30 mg/L; PARAINFLUENZA CC50 (uninfected cells [19]): 25 mg/L
5 | COc1ccccc1CNC(=O)c1nc2ccncc2s1 [#59, Thiazolo[5,4-c]pyridine-2-carboxylic acid-2-methoxybenzylamide] | – | – | – | – | – | – | – | – | – | – | – | – | – | – | – | – | – | – | – | – | HCMV IC50 (HCMV): ˜10 μg/ml
